Data on one compound can be found in patent US20260325542A1, “CANCER TARGETING COMPLEX, AND COMPOSITION COMPRISING SAME FOR PREVENTING OR TREATING CANCER” (EWHA UNIVERSITY - INDUSTRY COLLABORATION FOUNDATION, priority 2023, published 2026).

In the assay the test system is BRD4 and c-Myc. Nature of the assay: Immunofluorescence of excised cancer tissue (DAPI, anti-BRD4, anti-c-Myc). In kind it is in vivo, mouse. The following applies: vs comparison group and control group. How it is done:
The control group was administered saline (10 mg/kg) once every 3 days for 15 days through the tail vein (total 4 administrations). The comparison group was administered ARV-771 (10 mg/kg) once every 3 days for 15 days through the tail vein (total 4 administrations). The example group was administered ECMal-PROTAC 10 mg/kg (wquiv. to ARV-771) of example 1 once every 3 days for 15 days through the tail vein (total 4 administrations).
FIG. 33 is an image taken with a confocal laser scanning microscope after staining cancer tissue excised from the control group (Control, Saline), the comparison group (ARV-771, intravenous injection), and the example group (ECMal-PROTAC, intravenous injection) with DAPI, anti-BRD4, and anti-c-Myc.

For the compound `Cc1ncsc1-c1ccc([C@H](C)NC(=O)[C@@H]2C[C@@H](OC(=O)CCCCn3nnc4c3CCC3C(CC4)C3COC(=O)NCCOCCOCCNC(=O)CCN3C(=O)C=CC3=O)CN2C(=O)[C@@H](NC(=O)COCCCOCCNC(=O)C[C@@H]2N=C(c3ccc(Cl)cc3)c3c(sc(C)c3C)-n3c(C)nnc32)C(C)(C)C)cc1` (stereo partly shown) [ECMal-PROTAC], the “fluorescence signals related to c-Myc and BRD4” value was “weaker fluorescence signals”.
